Assay results taken from patent US11878013B2, “Isoquinoline derivative, preparing method thereof, and pharmaceutical composition for preventing or treating autophagy related diseases containing the same as an active ingredient” (Korea Research Institute of Chemical Technology, priority 2021, dated 2024).
Where two headings read alike, the source gives them in different places.

Key:
[1] = test system: NO production; assay: NO production in LPS-treated Raw 264.7 macrophages (Griess reagent); type: cell-based, mouse; conditions: 1 ug/ml LPS, 24 hours, Raw 264.7 cells; test concentration not given
Description: In order to confirm the effect of the compound of Example 1 of the present invention on NO production in Raw 264.7 mouse macrophages in which inflammatory response was induced by LPS, an experiment was performed as follows.
(§1) Raw 264.7 mouse macrophages were aliquoted in a 96-well plate at the density of 1×10^5 cells/well and stabilized in a 37° C., 5% CO2 incubator for 24 hours. The Raw 264.7 cells were treated with the compound of Example 1 by concentration. After 1 hour, the cells were treated with 1 ug/ml of LPS and cultured for 24 hours. For the measurement of NO production, 40 mg/ml of Griess reagent was prepared and it was mixed with the culture supernatant at the same ratio. The mixture was reacted at room temperature for 15 minutes, and absorbance was measured at 540 nm. Based on the results obtained therefrom, the cell viability and NO production rate were expressed as percentages in terms of LPS.

[2] = test system: Raw 264.7 mouse macrophages; assay: Cell viability of LPS-treated Raw 264.7 macrophages; type: cell-based
Description: as §1

[3] = test system: zebrafish; assay: Fatty liver inhibitory effect in tamoxifen-treated zebrafish juvenile fish (LipidGreen2 staining); type: in vivo; conditions: 5 μM tamoxifen alone, 22 hours (FIG. 8 top)
Description: In order to evaluate the inhibitory efficacy of the novel isoquinoline derivative of the present invention on fatty liver, an experiment was performed as follows using LipidGreen2 staining reagent capable of staining lipid droplets.
Particularly, the zebrafish used in this Experimental Example were juvenile fish 5 days after fertilization. Healthy juvenile fish were placed in a 24-well plate (10/well), and 1 ml of egg water was added to each well of the plate. As a negative control that could not regulate fatty liver, DMSO diluted at 0.4% was exposed to juvenile fish, and tamoxifen (Sigma-Aldrich, T5648) diluted at 5 μM was exposed to juvenile fish to control […] fatty liver. In order to investigate the fatty liver inhibitory efficacy of the compound of Example 1 of the present invention, the compound (0.5 μM, 1 μM and 5 μM) was mixed with 5 μM tamoxifen and exposed to juvenile fish (final volume of each well: 2 ml). The 24-well plate containing the compound was wrapped in foil to block light, and then incubated in a 28° C. incubator for 22 hours. The plate was washed with egg water 3 times for 5 minutes to remove the compound from each well. For fat-specific staining, LipidGreen2 diluted at 5 μM was exposed to juvenile fish for 30 minutes, and then washed 3 times with egg water for 5 minutes. To evaluate the fatty liver of zebrafish juvenile fish, the developing embryo was anesthetized with Tricaine (4 g/L), and then photographed on 3% methyl cellulose. As the equipment for photographing the developing embryo, a LEICA MZ10F fluorescence microscope, a LEICA DFC425 camera, and Leica Application Suite software (v4.5) were used. For the fluorescence wavelength, a GFP Plants filter set (Excitation 470/40 nm, Emission 525/50 nm) was used. To quantify the liver area and the degree of fat staining of juvenile fish on the image, the area and the fluorescence intensity of the liver part of each image were quantified using ImageJ 1.50i software (National Institutes of Health, USA) and converted into heatmap images.

[4] = test system: artificial skin tissue; assay: Skin toxicity test on artificial skin (MTT); type: cell-based; conditions: 5% SDS control group
Description: In order to evaluate the skin toxicity that may be induced upon skin contact of the compound of Example 1 of the present invention, the following experiment was performed using the artificial skin prepared with a structure similar to the skin of a living body.
Particularly, the experiment was performed according to OECD Guideline for the Testing of Chemicals No. 439, OECD (2010) and the method recommended by the manufacturer (Tegoscience).
First, the artificial skin cultured in agarose medium was transferred to a 12-well cell culture plate, to which culture medium was added, followed by culture in a humidified 37° C. 5% CO2 incubator for one day. The medium on the artificial skin culture surface was eliminated, and 90 μl of the compound of Example 1 of the present invention diluted with PBS was evenly applied to the skin surface, followed by incubation at room temperature for 15 minutes. The cell surface was washed twice with 10 ml of PBS, and a fresh culture medium was added, followed by incubation in a humidified 37° C. 5% CO2 incubator for 42 hours. In order to measure the viability of the skin, the artificial skin was transferred to a 12-well plate containing 2 ml of MTT solution (0.3 mg/ml), followed by culture for 3 hours. The stained artificial skin tissue was taken and transferred to a tube containing 500 μl of 0.04 N-isopropanol, and then incubated with shaking for 4 hours to decolorize. The solution was centrifuged at 13,000 rpm for 5 minutes, 100 μl of the supernatant was transferred to each well of a 96-well plate, and absorbance was measured at 570 nm.

[5] = test system: zebrafish; assay: Whitening effect: melanin synthesis / melanocyte formation in zebrafish; type: in vivo; conditions: 5 μM, treated 10 hours after fertilization, read at 32 hours after fertilization; PTU 200 μM as control
From the text: When observing the regeneration of melanin pigment, after inhibiting the formation of melanin pigment, it can be investigated by limiting it to the melanocyte generation pathway, and it is easy to observe the melanin synthesized in the initial stage of development. Therefore, zebrafish is more useful for the study of melanin pigment changes compared to other animal models (Logan D W, Burn S F, Jackson I J. (2006) Regulation of pigmentation in zebrafish melanophores. Pigment Cell Res. 2006 June; 19(3):206-13.).
Particularly, zebrafish fertilized eggs 10 hours after fertilization were placed in a 24-well plate (10 eggs/well), and 1 ml of egg water was added to each well of the plate. The compound of Example 1 was added to each well at the concentrations of 0.1 μM and 1 μM, so that the final volume of each well was 2 ml. Then, each 24-well plate was wrapped in foil to block light, and then incubated in a 28° C. incubator for 22 hours. At 32 hours after fertilization, in order to photograph the formation of black melanocytes, the chorion of the developing embryo was peeled off using a forcep (Fine Science Tools). After anesthetizing the developing embryo with Tricaine (4 g/L), the embryo was photographed on 3% methyl cellulose. As the equipment for photographing the developing embryo, a LEICA MZ10F fluorescence microscope, a LEICA DFC425 camera, and Leica Application Suite software (v4.5) were used. In all the experimental procedures, egg water sterilized after dissolving 60 mg/L of sea salt (Sigma-Aldrich, S9883) in tertiary distilled water was used as a solution for culturing the developing embryo. As a control group, a solvent control group (0.4% DMSO) and phenylthiourea (200 μM PTU), known as a tyrosinase inhibitor, were used (FIG. 6A).
In the same manner, experiments were performed with the compound of Comparative Example 1 at the concentrations of 0.5 μM, 1 μM, and 5 μM, and the results are shown in FIG. 6B.
On the other hand, in order to confirm the ability of the compound of the present invention to inhibit the melanin synthesis of the already generated melanocytes, the following experiment was performed with juvenile fish 60 hours after fertilization. Particularly, juvenile fish 60 hours after fertilization were placed in a 24-well plate (10/well), and 1 ml of egg water was added to each well of the plate. The compound of Example 1 was added to each well at the concentrations of 10 μM and 20 μM, so that the final volume of each well was 2 ml. Then, each 24-well plate was wrapped in foil to block light, and then incubated in a 28° C. incubator for 12 hours. In order to photograph the formation of black melanocytes, the developing embryo was anesthetized with Tricaine (4 g/L), and then the embryo was photographed on 3% methyl cellulose. […]

[6] = test system: melanogenesis; conditions: Bioorganic & Medicinal Chemistry Letters 30 (2020) 127201; cited from earlier work
[7] = test system: artificial corneal tissue; assay: Ocular toxicity test on artificial cornea (MTT); type: cell-based; conditions: 10% acetic acid control group
Description: In order to evaluate the ocular toxicity that may be induced upon ocular exposure of the compound of Example 1 of the present invention, the following experiment was performed using the cultured artificial cornea.
The artificial corneal tissue cultured in agarose medium was transferred to a 12-well cell culture plate, to which culture medium was added, followed by culture in a humidified 37° C. 5% CO2 incubator for one day. The medium on the artificial cornea culture surface was eliminated, and 30 μl of the compound of Example 1 of the present invention diluted with PBS was evenly applied to the cornea surface, followed by incubation at room temperature for 30 minutes. The cell surface was washed twice with 10 ml of PBS, and a fresh culture medium was added, followed by incubation in a humidified 37° C. 5% CO2 incubator for 30 minutes. In order to measure the viability of the cornea, the artificial cornea was transferred to a 12-well plate containing 2 ml of MTT solution (1 mg/ml), followed by culture for 3 hours. The stained artificial corneal tissue was taken and transferred to a tube containing 1.5 ml of isopropanol, and then incubated with shaking to decolorize. The solution was centrifuged at 13,000 rpm for 5 minutes, 100 μl of the supernatant was transferred to each well of a 96-well plate, and absorbance was measured at 570 nm.

[8] = LPS-treated Raw 264.7 cells, 24 hours, test concentration not given

Row | Compound | NO production (% of control) [1] | Cell viability (% of control) [2, 8] | other results
1 | [O-][S+](c1ccc(F)cc1)c1ccnc2ccccc12 (centres unmarked) [Example 2, 4-((4-Fluorophenyl)Sulfinyl)Quinoline] | 26 % of control | 100 % of control | –
2 | 1-((4-Fluorophenyl)Thio) Isoquinoline [Comparative Example 1, reference compound] | 70 % of control | – | Cell viability (% of control) [2]: 95 % of control
3 | [O-][S+](c1ccc(Cl)cc1)c1nccc2ccccc12 (centres unmarked) [Example 4, 1-((4-Chlorophenyl)Sulfinyl)Isoquinoline] | 40 % of control | 96 % of control | –
4 | O=S(=O)(c1ccc(F)cc1)c1nccc2ccccc12 [Comparative Example 2, 1-((4-Fluorophenyl) Sulfonyl)Isoquinoline, reference compound] | 65 % of control | 73 % of control | –
5 | [O-][S+](c1ccc(F)cc1F)c1nccc2ccccc12 (centres unmarked) [Example 3, 1-((2,4-Difluorophenyl)Sulfinyl)Isoquinoline] | 30 % of control | 103 % of control | –
6 | CC/C(=C(\c1ccccc1)c1ccc(OCCN(C)C)cc1)c1ccccc1 [tamoxifen, reference compound] | – | – | liver area [3]: maintained at the liver area level of normal juvenile fish
7 | CCCCCCCCCCCCOS(=O)(=O)[O-].[Na+] [SDS, reference compound] | – | – | MTT color development of artificial skin [4]: significant decrease of the MTT color development
8 | [O-][S+](c1ccc(C(F)(F)F)cc1)c1nccc2ccccc12 (centres unmarked) [Example 5, 1-((4-(Trifluoromethyl)Phenyl)Sulfinyl) Isoquinoline] | 25 % of control | 101 % of control | –
9 | Fc1ccc(Sc2nccc3ccccc23)cc1 [Comparative Example 1, 1-((4-Fluorophenyl)Thio) Isoquinoline, reference compound] | – | – | synthesis of melanin [5]: level similar to that of the PTU-treated group; anti-melanogenic effect [6]: anti-melanogenic effect
10 | CC(=O)O [acetic acid, reference compound] | – | – | MTT color development of artificial cornea [7]: significant decrease of the MTT color development
